Reference: US6462021B1, “Use of low molecular weight thrombin inhibitor” (AstraZeneca AB, priority 2000, dated 2002)

What was measured:
patients with NVAF [1] = assay: Clinical dose-guiding study: safety and tolerability (discontinuations, bleeding, adverse events)
Protocol: (§1) The tolerability of three different doses of X (20, 40, 60 mg p.o. b.i.d.) was compared with warfarin (aiming for an international normalisation ratio (INR) of 2 to 3) over 3 months' treatment in NVAF patients with moderately to high increased risk for stroke or systemic embolic events.
(§2) This was a multicentre, multinational, randomized, parallel group, dose-guiding study to compare the safety and tolerabilty of X with warfarin in stroke prophylaxis in patients with NVAF.
(§3) Patients were split into four groups: one group receiving 20 mg of X b.i.d, one given 40 (2×20) mg of X b.i.d, and one 60 (3×20) mg of X b.i.d. The fourth group received warfarin (open label, INR aiming for 2.0 to 3.0). All X medication was given double blind (i.e. neither doctor nor patient knew what tablet strength of X was given).
(§4) The duration of treatment was 12 weeks. […] The 40 mg b.i.d. dose was later reduced to 36 mg b.i.d. of X.

patients with NVAF [2] = assay: Clinical dose-guiding study: warfarin management (INR by visit); type: in vivo, human
patients with NVAF [3] = assay: Ongoing open label follow-up trials, 1 year on; type: in vivo
Text: The duration of treatment was 12 weeks.

patients with NVAF [4] = assay: Clinical dose-guiding study: stroke/TIA events; type: in vivo, human
Protocol: as §1, §2, §3, §4

[5] = NVAF patients, 20, 40, 60 mg p.o. b.i.d.
Protocol: as §1, §3

[6] = warfarin group, 40 treatment years
[7] = X Dose 140 mg (so in the source) b.i.d., 12 weeks
[8] = X 36 mg b.i.d., 120 treatment years
[9] = X group, at 60 mg b.i.d., 12 weeks

For `CC(=O)CC(c1ccccc1)c1c(O)c2ccccc2oc1=O` (centres unmarked) [Warfarin, warfarin], the “Bleeding Events, category Major” value (patients with NVAF [1]; warfarin group, 12 weeks) was 1, the “Bleeding Events, category Minor” value (patients with NVAF [1]; warfarin group, 12 weeks) was 2 and the “Bleeding Events, category Multiple Minor” value (patients with NVAF [1]; warfarin group, 12 weeks) was 1. For the same compound, the “Bleeding Events, category None (patients)” value (“Bleeding Events … (patients)” below) (patients with NVAF [1]; warfarin group, 12 weeks) was 60, the “Bleeding Events, category Unspecified” value (patients with NVAF [1]; warfarin group, 12 weeks) was 3 and the “Number of Patients discontinued, reason Adverse Event” value (“Number … reason Adverse Event” below) (patients with NVAF [1]; warfarin group, 12 weeks) was 4. The “Number of Patients discontinued, reason Calc. CrCl < 40 mL/min” value (“Number … reason Calc. CrCl < 40 mL/min” below) (patients with NVAF [1]; warfarin group, 12 weeks) was 5, the “Number of Patients discontinued, reason Other” value (“Number … reason Other” for short) (patients with NVAF [1]; warfarin group, 12 weeks) was 3 and the “Number of Patients discontinued, reason Withdrawn Consent” value (patients with NVAF [1]; warfarin group, 12 weeks) was 1. For the same compound, the “Number of Patients, Total Discontinued” value (patients with NVAF [1]; warfarin group, 12 weeks) was 13, the “Bleeding Events, category Major” value (patients with NVAF [1]; warfarin group, 12 weeks, listed as warfarin) was “only major bleed (genital tract) and one” and the “Prematurely discont. (percent of patients)” value (patients with NVAF [1]; warfarin, INR aim 2.0-3.0, 12 weeks) was “(19%)”. The “Prematurely discont. (number of patients)” value (patients with NVAF [1]; warfarin, INR aim 2.0-3.0, 12 weeks, 67 randomised) was 13, the “Patients in INR Range 1.0-1.9 (number)” value (patients with NVAF [2]; Visit 1, Week 0, N 62) was 34 and the “Patients in INR Range 1.0-1.9 (percent)” value (patients with NVAF [2]; Visit 1, Week 0, N 62) was 55%. The “Patients in INR Range 2.0-3.0 (number)” value (patients with NVAF [2]; Visit 1, Week 0, N 62) was 21, the “Patients in INR Range 2.0-3.0 (percent)” value (patients with NVAF [2]; Visit 1, Week 0, N 62) was 34% and the “Patients in INR Range >3.0 (number)” value (patients with NVAF [2]; Visit 1, Week 0, N 62) was 7. For the same compound, the “Patients in INR Range >3.0 (percent)” value (patients with NVAF [2]; Visit 1, Week 0, N 62) was 11%, the “Patients in INR Range 1.0-1.9 (number)” value (patients with NVAF [2]; Visit 3, Week 1, N 59) was 22 and the “Patients in INR Range 1.0-1.9 (percent)” value (patients with NVAF [2]; Visit 3, Week 1, N 59) was 37%. For the same compound, the “Patients in INR Range 2.0-3.0 (number)” value (patients with NVAF [2]; Visit 3, Week 1, N 59) was 25, the “Patients in INR Range 2.0-3.0 (percent)” value (patients with NVAF [2]; Visit 3, Week 1, N 59) was 42% and the “Patients in INR Range >3.0 (number)” value (patients with NVAF [2]; Visit 3, Week 1, N 59) was 12. The “Patients in INR Range >3.0 (percent)” value (patients with NVAF [2]; Visit 3, Week 1, N 59) was 20%, the “Patients in INR Range 1.0-1.9 (number)” value (patients with NVAF [2]; Visit 4, Week 2, N 54) was 15 and the “Patients in INR Range 1.0-1.9 (percent)” value (patients with NVAF [2]; Visit 4, Week 2, N 54) was 28%. For the same compound, the “Patients in INR Range 2.0-3.0 (number)” value (patients with NVAF [2]; Visit 4, Week 2, N 54) was 26, the “Patients in INR Range 2.0-3.0 (percent)” value (patients with NVAF [2]; Visit 4, Week 2, N 54) was 48% and the “Patients in INR Range >3.0 (number)” value (patients with NVAF [2]; Visit 4, Week 2, N 54) was 13. For the same compound, the “Patients in INR Range >3.0 (percent)” value (patients with NVAF [2]; Visit 4, Week 2, N 54) was 24%, the “Patients in INR Range 1.0-1.9 (number)” value (patients with NVAF [2]; Visit 5, Week 4, N 51) was 17 and the “Patients in INR Range 1.0-1.9 (percent)” value (patients with NVAF [2]; Visit 5, Week 4, N 51) was 33%. For the same compound, the “Patients in INR Range 2.0-3.0 (number)” value (patients with NVAF [2]; Visit 5, Week 4, N 51) was 22, the “Patients in INR Range 2.0-3.0 (percent)” value (patients with NVAF [2]; Visit 5, Week 4, N 51) was 43% and the “Patients in INR Range >3.0 (number)” value (patients with NVAF [2]; Visit 5, Week 4, N 51) was 12. For the same compound, the “Patients in INR Range >3.0 (percent)” value (patients with NVAF [2]; Visit 5, Week 4, N 51) was 24%, the “Patients in INR Range 1.0-1.9 (number)” value (patients with NVAF [2]; Visit 6, Week 8, N 49) was 15 and the “Patients in INR Range 1.0-1.9 (percent)” value (patients with NVAF [2]; Visit 6, Week 8, N 49) was 31%. For the same compound, the “Patients in INR Range 2.0-3.0 (number)” value (patients with NVAF [2]; Visit 6, Week 8, N 49) was 25, the “Patients in INR Range 2.0-3.0 (percent)” value (patients with NVAF [2]; Visit 6, Week 8, N 49) was 51% and the “Patients in INR Range >3.0 (number)” value (patients with NVAF [2]; Visit 6, Week 8, N 49) was 9. For the same compound, the “Patients in INR Range >3.0 (percent)” value (patients with NVAF [2]; Visit 6, Week 8, N 49) was 18%, the “Patients in INR Range 1.0-1.9 (number)” value (patients with NVAF [2]; Visit 7, Week 12, N 58) was 18 and the “Patients in INR Range 1.0-1.9 (percent)” value (patients with NVAF [2]; Visit 7, Week 12, N 58) was 31%. For the same compound, the “Patients in INR Range 2.0-3.0 (number)” value (patients with NVAF [2]; Visit 7, Week 12, N 58) was 33, the “Patients in INR Range 2.0-3.0 (percent)” value (patients with NVAF [2]; Visit 7, Week 12, N 58) was 57% and the “Patients in INR Range >3.0 (number)” value (patients with NVAF [2]; Visit 7, Week 12, N 58) was 7. The “Patients in INR Range >3.0 (percent)” value (patients with NVAF [2]; Visit 7, Week 12, N 58) was 12%, the TIAs (patients with NVAF [3]; [6]) was 2 and the fatal strokes (patients with NVAF [3]; [6]) was 2. For the same compound, the major life-threatening bleeds (patients with NVAF [3]; [6]) was 3, the TIAs reported (patients with NVAF [4]; warfarin group, 12 weeks) was “two” and the “Stroke/TIA event of individual patient” value (patients with NVAF [4]; warfarin group, 12 weeks, one line per patient (Pat. 120, 153)) was “TIA”.
With `CCOC(=O)CN[C@@H](C(=O)N1CC[C@H]1C(=O)NCc1ccc(/C(N)=N\O)cc1)C1CCCCC1` [X, EtO2C—CH2-(R)Cgl-Aze-Pab-OH] the “Prematurely discont. (percent of patients)” value (patients with NVAF [1]; X 20 mg p.o. b.i.d., 12 weeks) was “(15%)”, the “Prematurely discont. (number of patients)” value (patients with NVAF [1]; X 20 mg p.o. b.i.d., 12 weeks, 66 randomised) was 10 and the “Prematurely discont. (percent of patients)” value (patients with NVAF [1]; X 40 mg p.o. b.i.d., 12 weeks) was “(19%)”. For the same compound, the “Prematurely discont. (number of patients)” value (patients with NVAF [1]; X 40 mg p.o. b.i.d., 12 weeks, 64 randomised) was 12, the “onset pattern of bleeding” value (patients with NVAF [1]; X 60 mg b.i.d., similar pattern to warfarin) was “occurs early in the treatment period” and the “Prematurely discont. (percent of patients)” value (patients with NVAF [1]; X 60 mg p.o. b.i.d., 12 weeks) was “(20%)”. The “Prematurely discont. (number of patients)” value (patients with NVAF [1]; X 60 mg p.o. b.i.d., 12 weeks, 60 randomised) was 12, the “Bleeding Events, category Major” value (patients with NVAF [1]; X Dose 20 mg b.i.d., 12 weeks) was 0 and the “Bleeding Events, category Minor” value (patients with NVAF [1]; X Dose 20 mg b.i.d., 12 weeks) was 1. For the same compound, the “Bleeding Events, category Multiple Minor” value (patients with NVAF [1]; X Dose 20 mg b.i.d., 12 weeks) was 2, the “Bleeding Events … (patients)” value (patients with NVAF [1]; X Dose 20 mg b.i.d., 12 weeks) was 61 and the “Bleeding Events, category Unspecified” value (patients with NVAF [1]; X Dose 20 mg b.i.d., 12 weeks) was 2. For the same compound, the “Number … reason Adverse Event” value (patients with NVAF [1]; X Dose 20 mg b.i.d., 12 weeks) was 6, the “Number … reason Calc. CrCl < 40 mL/min” value (patients with NVAF [1]; X Dose 20 mg b.i.d., 12 weeks) was 4 and the “Number … reason Other” value (patients with NVAF [1]; X Dose 20 mg b.i.d., 12 weeks) was 0. The “Number of Patients, Total Discontinued” value (patients with NVAF [1]; X Dose 20 mg b.i.d., 12 weeks) was 10, the “Bleeding Events, category Major” value (patients with NVAF [1]; X Dose 40 mg b.i.d., 12 weeks) was 0 and the “Bleeding Events, category Minor” value (patients with NVAF [1]; X Dose 40 mg b.i.d., 12 weeks) was 0. The “Bleeding Events, category Multiple Minor” value (patients with NVAF [1]; X Dose 40 mg b.i.d., 12 weeks) was 3, the “Bleeding Events … (patients)” value (patients with NVAF [1]; X Dose 40 mg b.i.d., 12 weeks) was 57 and the “Bleeding Events, category Unspecified” value (patients with NVAF [1]; X Dose 40 mg b.i.d., 12 weeks) was 2. For the same compound, the “Bleeding Events, category Major” value (patients with NVAF [1]; X Dose 60 mg b.i.d., 12 weeks) was 0, the “Bleeding Events, category Minor” value (patients with NVAF [1]; X Dose 60 mg b.i.d., 12 weeks) was 3 and the “Bleeding Events, category Multiple Minor” value (patients with NVAF [1]; X Dose 60 mg b.i.d., 12 weeks) was 0. The “Bleeding Events … (patients)” value (patients with NVAF [1]; X Dose 60 mg b.i.d., 12 weeks) was 52, the “Bleeding Events, category Unspecified” value (patients with NVAF [1]; X Dose 60 mg b.i.d., 12 weeks) was 4 and the “Number … reason Adverse Event” value (patients with NVAF [1]; X Dose 60 mg b.i.d., 12 weeks) was 5. For the same compound, the “Number … reason Calc. CrCl < 40 mL/min” value (patients with NVAF [1]; X Dose 60 mg b.i.d., 12 weeks) was 4, the “Number … reason Other” value (patients with NVAF [1]; X Dose 60 mg b.i.d., 12 weeks) was 1 and the “Number of Patients, Total Discontinued” value (patients with NVAF [1]; X Dose 60 mg b.i.d., 12 weeks) was 12. For the same compound, the “Number … reason Adverse Event” value (patients with NVAF [1]; [7]) was 3, the “Number … reason Calc. CrCl < 40 mL/min” value (patients with NVAF [1]; [7]) was 5 and the “Number … reason Other” value (patients with NVAF [1]; [7]) was 1. The “Number of Patients, Total Discontinued” value (patients with NVAF [1]; [7]) was 12, the liver enzyme levels (patients with NVAF [1]; a few patients treated with X) was “asymptomatic increases” and the tolerability (patients with NVAF [1]; doses of up to 60 mg b.i.d. over 3 months) was “well tolerated”. For the same compound, the “pharmacokinetics, dose dependence” value [5] was “dose proportional”, the TIAs (patients with NVAF [3]; [8]) was 2 and the major bleeds (patients with NVAF [3]; [8]) was “no major bleeds”. For the same compound, the non-fatal strokes (patients with NVAF [3]; [8]) was 2, the “Stroke/TIA event of individual patient” value (patients with NVAF [4]; X 60 mg b.i.d. group, 12 weeks, one line per patient (Pat. 121, 309)) was “Ischemic stroke and TIA” and the stroke rate (patients with NVAF [4]; X group, all doses combined, estimated 40 patient years of observation) was 2.5%. For the same compound, the TIA reported (patients with NVAF [4]; [9]) was “one” and the ischemic stroke reported (patients with NVAF [4]; [9]) was “one”.
